Biological target: T1, human CRHR2-alpha (Homo sapiens, UniProt Q13324)
T1 sequence (Q13324 1-411): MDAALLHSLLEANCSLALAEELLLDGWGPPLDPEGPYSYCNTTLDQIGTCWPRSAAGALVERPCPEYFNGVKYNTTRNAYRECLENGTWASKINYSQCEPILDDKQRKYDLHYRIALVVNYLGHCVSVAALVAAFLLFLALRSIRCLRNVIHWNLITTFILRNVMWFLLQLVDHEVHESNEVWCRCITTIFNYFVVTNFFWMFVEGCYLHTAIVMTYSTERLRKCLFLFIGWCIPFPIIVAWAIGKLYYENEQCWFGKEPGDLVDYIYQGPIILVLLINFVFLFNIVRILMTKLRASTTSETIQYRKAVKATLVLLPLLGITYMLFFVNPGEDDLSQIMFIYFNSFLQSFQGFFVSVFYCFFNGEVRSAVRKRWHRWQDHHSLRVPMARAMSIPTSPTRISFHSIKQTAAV
Assay: cAMP functional assay for human CRHR2 (LANCE Ultra cAMP, TR-FRET)
Type: cell-based
Details: CHO-K1 cells expressing human CRHR2-alpha, agonist human urocortin2 at EC80, cAMP; read-out: IC50 against CRHR2
Procedure, shortened: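 IC50 values derive from percent inhibition of EC80 agonist-stimulated cAMP in CHO-K1 transfectants, with 0.5 mM IBMX present; the CRHR2 line was stimulated by human urocortin2 and the CRHR1 line by CRF.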

IC50, < 300 nM:
Cn1cc(-c2cc(-n3c(=O)n(C[C@H]4CC[C@H](NC(=O)c5cc(Cl)cnc5C(F)F)CC4)c4ccccc43)ccn2)cn1 [Example 699, 5-chloro-2-(difluoromethyl)-N-((1r,4r)-4-((3-(2-(1-methyl-1H-pyrazol-4-yl)pyridin-4-yl)-2-oxo-2,3-dihydro-1H-benzo [d]imidazol-1-yl)methyl)cyclo-hexyl)nicotinamide]
Cc1ncc(Cl)cc1C(=O)N[C@H]1CC[C@H](Cn2c(=O)n(-c3ccc(C4=CCOCC4)nc3)c3ccccc32)CC1 [Example 84, 5-chloro-N-((1r,4r)-4-((3-(6-(3,6-dihydro-2H-pyran-4-yl)pyridin-3-yl)-2-oxo-2,3-dihydro-1H-benzo[d]imidazol-1-yl)methyl)cyclohexyl)-2-methylnicotinamide]
COC1CCN(c2ccc(-n3c(=O)n(C[C@H]4CC[C@H](NC(=O)c5cc(Cl)cnc5C)CC4)c4ccccc43)cn2)CC1 [Example 126, 5-chloro-N-((1r,4r)-4-((3-(6-(4-methoxypiperidin-1-yl)pyridin-3-yl)-2-oxo-2,3-di-hydro-1H-benzo[d]imidazol-1-yl)methyl)cyclohexyl)-2-methylnicotinamide]
CNc1ccc(-n2c(=O)n(C[C@H]3CC[C@H](NC(=O)c4cc(Cl)cnc4C(F)F)CC3)c3c(F)cccc32)cn1 [Example 672, 5-chloro-2-(difluoromethyl)-N-((1r,4r)-4-((7-fluoro-3-(6-(methylamino)pyridin-3-yl)-2-oxo-2,3-dihydro-1H-benzo [d]imidazol-1-yl)methyl)cyclo-hexyl)nicotinamide]
O=C(N[C@H]1CC[C@H](Cn2c(=O)n(-c3cncc(N4CCOCC4)c3)c3ccccc32)CC1)c1cc(Cl)cnc1C(F)F [Example 476, 5-chloro-2-(difluoromethyl)-N-((1r,4r)-4-((3-(5-morpholino-pyridin-3-yl)-2-oxo-2,3-dihydro-1H-benzo[d]imidazol-1-yl)methyl)cyclohexyl) nicotinamide]
CNc1cc(-n2c(=O)n(C[C@H]3CC[C@H](NC(=O)c4cc(Cl)cnc4C)CC3)c3ccccc32)ccn1 [Example 573, 5-chloro-2-methyl-N-((1r,4r)-4-((3-(2-(methylamino)pyridin-4-yl)-2-oxo-2,3-dihydro-1H-benzo[d]imidazol-1-yl)methyl)cyclohexyl)nicotinamide]
O=C(NCC(F)F)c1ccc(-n2c(=O)n(C[C@H]3CC[C@H](NC(=O)c4cc(Cl)cnc4C(F)(F)F)CC3)c3ccccc32)cn1 [Example 411, 5-(3-(((1r,4r)-4-(5-chloro-2-(trifluoromethyl)nicotinamido)cyclohexyl)methyl)-2-oxo-2,3-dihydro-1H-benzo[d]imidazol-1-yl)-N-(2,2-difluoroethyl) picolinamide]
CNc1cnc(-n2c(=O)n(C[C@H]3CC[C@H](NC(=O)c4cc(Cl)cnc4C(F)(F)F)CC3)c3ccccc32)cn1 [Example 298, 5-chloro-N-((1r,4r)-4-((3-(5-(methylamino)pyrazin-2-yl)-2-oxo-2,3-dihydro-1H-benzo[d]imidazol-1-yl)methyl)cyclo-hexyl)-2-(trifluoromethyl) nicotinamide]
Cn1ccc(-c2ccc(-n3c(=O)n(C[C@H]4CC[C@H](NC(=O)c5cc(Cl)cnc5C(F)(F)F)CC4)c4ccccc43)cn2)n1 [Example 777, 5-chloro-N-((1r,4r)-4-((3-(6-(1-methyl-1H-pyrazol-3-yl)pyridin-3-yl)-2-oxo-2,3-dihydro-1H-benzo[d]imidazol-1-yl)methyl)cyclohexyl)-2-(trifluoromethyl)nicotinamide]
O=C(N[C@H]1CC[C@H](Cn2c(=O)n(-c3ccc(-n4nccn4)cc3)c3ccccc32)CC1)c1cc(Cl)cnc1C(F)F [Example 684, N-((1r,4r)-4-((3-(4-(2H-1,2,3-triazol-2-yl)phenyl)-2-oxo-2,3-dihydro-1H-benzo[d]imidazol-1-yl)methyl)cyclo-hexyl)-5-chloro-2-(difluoro-methyl)nicotinamide]
